From US6479524B1, “Substituted aryl and heteroaryl derivatives, their production and their use as medicines” (Boehringer Ingelheim Pharma KG, priority 1998, dated 2002)

Each compound was assayed on human citrated plasma (assay: aPTT time prolongation (clotting of human citrated plasma, Biomatic B10 coagulometer)). Conditions: effective concentration at which the aPTT time is double compared with the control, 37° C.
Format: biochemical
Procedure: were investigated for their effect on prolonging the aPTT time as follows:
plasma, from human citrated blood.
Diethylbarbiturate acetate buffer, Behring Werke, Marburg (ORWH 60/61),
Biomatic B10 coagulometer, Desaga, Wiesloch.
The aPTT time was determined using a Biomatic B10 coagulometer made by Messrs. Sarstedt.
The test substance was placed in the test tubes prescribed by the manufacturer with 0.1 ml of human citrated plasma and 0.1 ml of PTT reagent. The mixture was incubated for three minutes at 37° C. The clotting reaction was started by the addition of 0.1 ml of calcium solution. The time is measured using the apparatus from the addition of the calcium solution up to the clotting of the mixture. Mixtures to which 0.1 ml of DBA buffer were added were used as the controls.

Row | Structure (SMILES) | aPTT time (ED200 in μM) [µM]
1 | CCOC(=O)Cc1cc(C#CCNc2ccc(C(=N)N)cc2)c(C)cc1C(=O)N1CCCC1C (racemic) [A, rac-4-{3-[5-ethoxycarbonylmethyl-2-methyl-4-(2-methyl-pyrrolidinocarbonyl)-phenyl]-propargylamino}benzamidine] | 0.23
2 | Cc1cc(C(=O)N2CCCC2C)c(C)cc1C#CCNc1ccc(C(=N)N)cc1 (racemic) [B, rac-4-{3-[2,5-dimethyl-4-(2-methyl-pyrrolidinocarbonyl)-phenyl]-propargylamino}benzamidine] | 0.45
3 | Cc1cc(C(=O)C(C)C)c(C)cc1C#CCNc1ccc(C(=N)N)cc1 [C, 4-[3-(2,5-dimethyl-4-isopropylcarbonyl-phenyl)propargyl-amino]benzamidine] | 0.97
4 | Cc1cc(C(=O)N(C)c2ccccn2)c(C)cc1C#CCNc1ccc(C(=N)N)cc1 [D, 4-{3-[2,5-dimethyl-4-(N-methyl-N-pyridin-2-yl-aminocarbonyl)-phenyl]propargylamino}benzamidine] | 0.23
5 | Cc1cc(C(=O)N(C)c2ccccn2)c(C)cc1CCCNc1ccc(C(=N)N)cc1 [E, 4-{3-[2,5-dimethyl-4-(N-methyl-N-pyridin-2-yl-aminocarbonyl)-phenyl]prop-1-ylamino}benzamidine] | 0.69
6 | Cc1cc(C#CCNc2ccc(C(=N)N)cc2)ccc1C(=O)N1CCCC1 [F, 4-[3-(3-methyl-4-pyrrolidinocarbonyl-phenyl)-propargyl-amino]-benzamidine] | 0.54
7 | CCN(CCC(=O)OC)C(=O)c1cc(C)c(C#CCNc2ccc(C(=N)N)cc2)cc1C [G, 4-{3-[2,5-dimethyl-4-(N-(2-methoxycarbonyl-ethyl)-N-ethyl-carbonylamino)-phenyl]-propargylamino}benzamidine] | 0.29
8 | Cc1cc(NC(=O)N(CC(=O)O)C(C)C)c(C)cc1C#CCNc1ccc(C(=N)N)cc1 [H, 4-{3-[2,5-dimethyl-4-(N-isopropyl-N-hydroxycarbonylmethyl-aminocarbonyl-amino)-phenyl]-propargylamino}-benzamidine] | 0.20
9 | Cc1cc(N(C(=O)CC(=O)O)C(C)C)c(C)cc1C#CCNc1ccc(C(=N)N)cc1 [I, 4-{3-[2,5-dimethyl-4-(N-isopropyl-N-hydroxycarbonylmethyl-carbonyl-amino)-phenyl]-propargylamino}-benzamidine] | 0.45
